Reference: patent US11891601B2, “Method to enhance the transcription regulation of SUPT4H on genes containing repetitive nucleotide sequences” (National Yang-Ming University, priority 2018, dated 2024)

Tested on: R-loops in genes containing lengthy CAG repeats, including mutant HTT
Experiment: DIP assay of R-loops in genes with lengthy CAG repeats, including mutant HTT, in murine neuronal cells
Assay type: cell-based, mouse
Conditions: 30 μM tropolone for 12 hours in Hdh cells
Procedure: Yeast cells were collected after culturing in 2% galactose-containing medium for 12 hours, and then grinded by glass beads in the presence of 300 μl extraction buffer (10 mM Tris-HCl pH 8.0, 10 mM EDTA, 200 mM NaCl, 1% SDS, 2% Triton X-100, 25 units RNase inhibitor). The nucleic acid mixture was subjected to sonication (Bioruptor UCD-200) and extracted by phenol (pH 8.0). Purified chromatin DNA and RNA, with or without RNase H treatment for 90 minutes, was precipitated by monoclonal antibody S9.6 bound to protein G agarose beads. […] The RNA/DNA hybrid (R-loop) signal was analyzed by qPCR and the Quantitative-Comparative CT (MCT) program. In yeast experiments, a pair of primers (Primer-B F and Primer-B R) were used to quantify R-loop signal in the vicinity of CAG repeats and the primer set AMP was used as a control. […] For Hdh^Q7/Q7 and Hdh^Q111/Q111, mouse HTT DIP primer set was used to quantify R-loop signal of the CAG repeating region and Tubal a DIP primer set was included as a control. […]
Please refer to FIG. 7. […] RNA was extracted and analyzed by real-time RT-qPCR to measure the quantity of HTT, SUPT4H and snRNA U6. […] HTT, SUPT4H, TATA-box binding protein (TBP) were measured. […] Analogous to FIG. 7(C), the quantification of HTT protein levels is shown in bottom panel.

**Q.** Which “R-loops in genes containing lengthy CAG repeats, including mutant HTT” value does the source give for `O=c1cccccc1O` [Tropolone] here?
**A.** Its value is “able to increase R-loops”.
